The text below walks through data of patent US20140242609A1, “Diagnosis and treatment of kidney stones, methods and compositions therefor” (Washington University, priority 2013, published 2014).

Experiment [1] is described as follows: 24 hr urinalysis in metabolic cages, plasma and urine electrolytes. The class given is in vivo, mouse. Here is the method:
Age (9-10 weeks old) and sex (male) matched wild-type and CLDN14 KO mice were housed individually in metabolic cages (Harvard Apparatus) with free access to water and food for 24 hr. Urine was collected under mineral oil. The plasma and urine Ca^++ and Mg^2+ levels were determined with atomic flame absorption spectrophotometer (PerkinElmer). The plasma (P) and urine (U) electrolyte levels were determined with the Roche Cobas clinical analyzer (Roche Diagnostics). […] The fractional excretion of electrolytes was calculated using the following equation: FEion=V×Uion/(GFR×Pion), where GFR was calculated according to the clearance rate of creatinine (GFR=V×Ucreatinine/Pcreatinine).
Mice were housed individually in metabolic cages (Harvard Apparatus) with free access to water and food for 24 hr. Urine was collected under mineral oil. The plasma and urine Ca^++ and Mg^++ levels were determined with atomic flame absorption spectrophotometer (PerkinElmer). The creatinine levels were measured with an enzymatic method that was independent of plasma chromogens.

The test system of a further experiment is claudin-14 mRNA. Briefly: claudin-14 mRNA levels in mouse kidney after systemic treatment (real-time PCR). The format is in vivo. The following applies: 1 mg/kg BW−1; 4 hr. Here is the method: NPS2143 and cinacalcet (Table 1) were dissolved in vehicle—20% (w/v) (2-Hydroxypropyl)-β-cyclodextrin solution and fed to mice with gavage syringe. Cyclosporin-A (Sandimmune; Table 1) was diluted in 0.9% saline and I.P. injected to animals. Control animals received vehicle injection (13% wiv Cremophor EL and 32.9% ethanol). For dietary Ca^2+ manipulation, animals were fed with the following diets for six consecutive days: basal diet: 0.61% Ca^2+ (TestDiet #5755); low Ca^2+ diet: 0 Ca^++ (TestDiet #5855); high Ca^2+ diet: 5% Ca^2+ (TestDiet #5AVB). All animals had free access to water and were housed under a 12 hr light cycle. Blood samples were taken by cardiac puncture rapidly after initiation of terminal anesthesia and centrifuged at 4° C. for 10 min. Kidney were dissected out and immediately frozen at −80° C.
(§1) Total RNA including microRNA was extracted using Trizol (Invitrogen). Cellular mRNA was reverse transcribed using the Superscript-III kit (Invitrogen), followed by real-time PCR amplification using SYBR Green PCR Master Mix (Bio-Rad) and Eppendorf Realplex2S system. The design of claudin-14 primers was described above. The design of pri-miRNA primers was according to Ma et al., (2010). Results were expressed as 2^−ΔCt values with ΔCT=Ctgene−Ctβ-actin.
SAHA and TsA were dissolved in 5% (w/v) ethanol/0.9% saline solution and fed to mice with gavage syringe. Furosemide was dissolved in 50% (w/v) DMSO/0.9% saline solution and I.P. injected to animals. All animals had free access to water and were housed under a 12 hr light cycle. Blood samples were taken by cardiac puncture rapidly after initiation of terminal anesthesia and centrifuged at 4° C. for 10 min. Kidney were dissected out and immediately frozen at −80° C.
Total RNA including microRNA was extracted using Trizol (Invitrogen). Cellular mRNA was reverse transcribed using the Superscript-III kit (Invitrogen), followed by real-time PCR amplification using SYBR Green PCR Master Mix (Bio-Rad) and Eppendorf Realplex2S system. The design of claudin-14 primers was described before by Gong et al., 2012. The design of pri-miRNA primers and ChIP primers was according to Gong et al., 2013. Results were expressed as 2^−ΔCt values with ΔCT=Ctgene−Ctβ-actin. […]
NPS2143 and cinacalcet (Table 9) were dissolved in vehicle −20% (w/v) (2-Hydroxypropyl)-β-cyclodextrin solution and fed to mice with gavage syringe. Cyclosporin-A (Sandimmune; Table 9) was diluted in 0.9% saline and I.P. injected to animals. Control animals received CNI vehicle injection (13% wiv Cremophor EL and 32.9% ethanol). FK506 was dissolved in CNI vehicle, diluted in 0.9% saline and I.P. injected to animals. For dietary Ca^+ manipulation, animals were fed with the following diets for six consecutive days: basal diet: 0.610% Ca^++ (TestDiet #5755); low Ca^++ diet: 0 Ca^++ (TestDiet #5855); high Ca^++ diet: 5% Ca^+ (TestDiet #5AVB). All animals had free access to water and were housed under a 12 hr light cycle. Blood samples were taken by cardiac puncture rapidly after initiation of terminal anesthesia and centrifuged at 4° C. for 10 min. Kidney were dissected out and immediately frozen at −80° C.
Total RNA including microRNA was extracted using Trizol (Invitrogen). Cellular mRNA was reverse transcribed using the Superscript-III kit (Invitrogen), followed by real-time PCR amplification using SYBR Green PCR Master Mix (Bio-Rad) and Eppendorf Realplex2S system. The design of claudin-14 primers was described before by Gong. Y., et al., 2012. The design of pri-miRNA primers was according to Ma. L., et al., 2010. Results were expressed as 2^−ΔCt values with ΔCT=Ctgene−Ctβ-actin.

The next experiment relates to CLDN14 mRNA. Briefly: CLDN14 mRNA levels in primary cultures / freshly isolated mouse TALH cells (real-time PCR). The format is cell-based. The following applies: 0.01 μM; versus vehicle. Here is the method: An immunomagnetic separation method was used to isolate the TAL cells from the mouse kidney (Hou et al., 2009). Antibodies against the TAL cell specific surface antigen, Tamm-Horsfall protein (THP), were coated onto the paramagnetic polystyrene beads (Dynabeads M-280; Dynal), allowing immunoprecipitation of the TAL cells from collagenase digested mouse kidneys. The isolated cells were plated in DMEM medium supplemented with 10% FBS, penicillin/streptomycin, and 1 mM sodium pyruvate for 16 hours, followed by immediate transfection with NFAT or antagomirs.
as §1
An immunomagnetic separation method was used to isolate the TALH cells from the mouse kidney. (Gong Y, et al. 2012 and Gong Y, et al. 2013) Antibodies against the TALH cell specific surface antigen, Tamm-Horsfall protein, were coated onto the paramagnetic polystyrene beads (Dynabeads M-280; Dynal), allowing immunoprecipitation of the TALH cells from collagenase digested mouse kidneys. The isolated cells were plated in DMEM medium supplemented with 10% FBS, penicillin/streptomycin, and 1 mM sodium pyruvate for 16 hours, followed by immediate treatment.
Total RNA including microRNA was extracted using Trizol (Invitrogen). Cellular mRNA was reverse transcribed using the Superscript-III kit (Invitrogen), followed by real-time PCR amplification using SYBR Green PCR Master Mix (Bio-Rad) and Eppendorf Realplex2S system. […] Results were expressed as 2^−ΔCt values with ΔCT=Ctgene−Ctβ-actin. […]
Total RNA including microRNA was extracted using Trizol (Invitrogen). […] Results were expressed as 2^−ΔCt values with ΔCT=Ctgene−Ctβ-actin. […]
In general terms: Quantitative PCR measures a nucleic acid by following its amplification.

The next experiment concerns CLDN14. Briefly: CLDN14 expression in cultured MKTAL cells. The format is cell-based, mouse. The following applies: 1 nM, 10 nM and 100 nM.
Another experiment addresses T1, human CLDN16 (AF152101) (human, UniProt Q9Y5I7 1-235).
T1 sequence (looked up): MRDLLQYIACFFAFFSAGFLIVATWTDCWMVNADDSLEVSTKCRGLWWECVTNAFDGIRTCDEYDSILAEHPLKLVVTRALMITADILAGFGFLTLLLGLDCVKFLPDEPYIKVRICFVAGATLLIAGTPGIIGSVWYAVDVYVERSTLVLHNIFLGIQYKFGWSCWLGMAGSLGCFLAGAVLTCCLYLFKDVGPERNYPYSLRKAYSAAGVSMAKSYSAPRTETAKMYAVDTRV
Kind of experiment: cell-based or functional assay.

Setting [2] is: WT pre-treated with furosemide 40 mg/kg BW−1 per day, Veh + Furo = furosemide alone.

In the case of `NS(=O)(=O)c1cc(C(=O)O)c(NCc2ccco2)cc1Cl` [Furo, Furosemide], in experiment [1] (setting [2]), the ECa stood at 2.84 ± 0.78 ug/24 hr · g, the EMg turned out to be 13.24 ± 3.13 ug/24 hr · g, the FECa worked out at 1.89 ± 0.67 % and the FEMg worked out at 32.83 ± 1.30 %. Further, in experiment [1] (setting [2]), the PCa was 10.61 ± 0.43 mg/dL and the PMg is on record as 2.33 ± 0.11 mg/dL.

As for `CC(/C=C/C(=O)NO)=C\[C@@H](C)C(=O)c1ccc(N(C)C)cc1` [TsA, Trichostatin A], the “CLDN14 mRNA levels in the kidney, decrease” value in the experiment with claudin-14 mRNA was found to be 71%. The “effects on renal Ca++ and Mg++ metabolism (compared with SAHA)” value in experiment [1] (1 mg/kg BW−1 per day) is “exerted similar effects”. For the same molecule, in the experiment with CLDN14 mRNA, the “CLDN14 mRNA levels, reduction” value is listed as 64%.

B1: PTH: human recombinant PTH (1-84; Sigma) (protein, UniProt P01270 32-115, looked up)
Parathyroid hormone: SVSEIQLMHNLGKHLNSMERVEWLRKKLQDVHNFVALGAPLAPRDAGSQRPRKKEDNVLVESHEKSLGEADKADVNVLTKAKSQ
modifications: Parathyroid hormone
Turning to B1, the CLDN14 gene expression result with CLDN14 is recorded as “no significant effect”.

B2: mouse CLDN14 (AF314089) (other, UniProt Q9Z0S3 1-239, looked up)
chain: MASTAVQLLGFLLSFLGMVGTLITTILPHWRRTAHVGTNILTAVSYLKGLWMECVWHSTGIYQCQIYRSLLALPRDLQAARALMVISCLLSGMACACAVVGMKCTRCAKGTPAKTTFAVLGGALFLLAGLLCMVAVSWTTNDVVQNFYNPLLPSGMKFEIGQALYLGFISSSLSLIGGTLLCLSCQDEAPYRPYPPQSRAGATTTATAPAYRPPAAYKDNRAPSVTSAAHSGYRLNDYV
As for B2, in the experiment with human CLDN16 (AF152101), the “fold decrease of absolute Na+ permeability, CLDN14+16+19 versus CLDN16+19” value was 2.43 fold and the “fold reduction of PNa by CLDN14 in CLDN16 cell background” value was 2.03 fold.
